US8367313B2, “Method of determining sperm capacitation” (Cornell University, priority 2003, dated 2013)
“Also recorded” adds a separate entry of the source. Read-outs that look alike come from different tables or passages of the source.

Tests used:
murine sperm = assay: Protein tyrosine phosphorylation / capacitation of sperm; format: cell-based, mouse
[1] = tested on: sterols in sperm plasma membrane; conditions: exposure of sperm to sterol acceptor; cited from earlier work
[2] = tested on: GM1 localization in murine sperm; format: cell-based, mouse
[3] = incubation with the stimulus alone
[4] = Fixative A: 0.004% paraformaldehyde, mouse sperm
[5] = Fixative B: 1.25% paraformaldehyde, 2.5% glutaraldehyde, 100 mM sodium cacodylate, 0.5 mM CaCl2
[6] = Fixative C: 4% paraformaldehyde, 0.1% glutaraldehyde, 1 mM CaCl2

[Ca+2] [Ca^++]
ability to cause tyrosine phosphorylation or capacitation (murine sperm; [3]): not sufficient

bovine serum albumin [BSA]
effect on filipin-sterol complexes (FSC) [1]: loss of most FSC from the plasma membrane overlying the acrosome

CC(=O)[C@H]1CC[C@H]2[C@@H]3CCC4=CC(=O)CC[C@]4(C)[C@H]3CC[C@]12C [progesterone]
GM1 staining localization after induction of acrosomal exocytosis ([2]; after capacitating incubation (bicarbonate and 2-OHCD), then progesterone 10 μg/ml for 10 minutes): a signal over the apical acrosome alone; also recorded: concentrated in the region of the apical acrosome

O=C([O-])O.[Na+] [NaHCO3]
GM1 staining localization after exposure to stimulus [2]: staining was observed in the apical acrosome and post-acrosomal region | sperm with Pattern D (diffuse) [2]: 3.2% | ability to cause tyrosine phosphorylation or capacitation (murine sperm): not sufficient

(2-hydroxypropyl)-β-cyclodextrin [2-OHCD]
shift in CTb labeling pattern (FIG. 3/FIG. 4 patterns A, B, C) ([2]; 45 minute incubation, 10 mM HCO3− or 3 mM 2-OHCD, 0.004% paraformaldehyde): shifts to pattern “C.” | sperm with Pattern A (acrosomal) [2, 4]: Ns | sperm with Pattern AA/PA (apical acrosome and post-acrosomal) [2, 4]: 28.8% | sperm with Pattern D (diffuse) [2, 4]: 40.4% | sperm with Pattern PA (post-acrosomal) [2, 4]: 37.9% | sperm with Pattern D (diffuse) ([2]; Fixative A: 0.004% paraformaldehyde, mouse sperm, listed as cyclodextrin): approximately 40% | sperm with Pattern A (acrosomal) [2, 5]: 41.8% | sperm with Pattern AA/PA (apical acrosome and post-acrosomal) [2, 5]: 0% | sperm with Pattern D (diffuse) [2, 5]: 0% | sperm with Pattern PA (post-acrosomal) [2, 5]: 58.2% | sperm with Pattern A (acrosomal) [2, 6]: 80.5% | sperm with Pattern AA/PA (apical acrosome and post-acrosomal) [2, 6]: 0.2% | sperm with Pattern D (diffuse) [2, 6]: 0% | sperm with Pattern PA (post-acrosomal) [2, 6]: 19.4% | GM1 staining localization after exposure to stimulus ([2]; sperm fixed with 0.004% paraformaldehyde): a signal in the plasma membrane overlying the acrosome as well as in the post-acrosomal region | ability to cause tyrosine phosphorylation or capacitation (murine sperm; [3]): not sufficient | effect on filipin-sterol complexes (FSC) [1]: loss of most FSC from the plasma membrane overlying the acrosome
